Measured values published in patent US5464836A, “Benzophenones having an antifungal activity” (Ministero dell'Universita` e della Ricerca Scientifica e …, priority 1991, dated 1995).

System: Helminthosporium teres
Assay: preventive fungicidal activity on Helminthosporium teres (barley leaves)
Assay type: in vivo
Details: barley leaves cv. Arna, 12 days, scale 100 (healthy plant) to 0 (completely infected plant)
Method: Determination of the preventive fungicidal activity on Helminthosporium teres. Barley leaves cv. Arna, cultivated in a vase in a conditioned environment, were treated by spraying both sides with the products being tested (compounds 1 and 2) in a 20% hydroacetonic solution of acetone (vol./vol.). After remaining 2 days in the conditioned environment at 20° C. and 70% R.H., the plants were sprayed on both sides of the leaves with an aqueous suspension of Helminthosporium teres (250.000 conidii per cc.). After 24 hours in a humidity saturated atmosphere, at 21° C., the plants were kept in a conditioned environment for the incubation of the fungus. At the end of this period (12 days), the gravity of infection was estimated by observation, with a scale of indexes ranging from 100 (healthy plant) to 0 (completely infected plant).

Row | SMILES | % Control Helminthosporium (dosage 125 ppm) [%] | % Control Helminthosporium (dosage 500 ppm) [%]
1 | CC(Cc1cccc(C(=O)c2ccc(Cl)cc2)c1)CN1C[C@@H](C)O[C@@H](C)C1 (stereo partly shown) [Compound 2, 4-[3-(3-(4-chlorobenzoyl)phenyl)-2-methylpropyl]-2,6-dimethylmorpholine] | 100 | 100
2 | CC(Cc1cccc(C(=O)c2ccccc2)c1)CN1C[C@@H](C)O[C@@H](C)C1 (stereo partly shown) [Compound 1, 4-[3-(3-benzoylphenyl)-2-methylpropyl]-2,6-dimethylmorpholine] | 100 | 100
